Laboratory results from patent US4490527A, “Benzo-fused heterocyclic anti-ulcer agents” (American Home Products Corporation, priority 1983, dated 1984).
“Also recorded” adds a separate entry of the source. Counter-ions that a name gives are not always drawn. Like-named read-outs stand apart in the source and are kept apart here.

How the values were obtained:
H2 histamine receptors = H2 histamine receptors (Cavia porcellus, UniProt P47747); experiment: cell-based; parameters: species or system guinea pig; conditions: vs histamine dose-response, 32° C., pH 7.4
H2 histamine receptors, sequence (P47747 whole entry): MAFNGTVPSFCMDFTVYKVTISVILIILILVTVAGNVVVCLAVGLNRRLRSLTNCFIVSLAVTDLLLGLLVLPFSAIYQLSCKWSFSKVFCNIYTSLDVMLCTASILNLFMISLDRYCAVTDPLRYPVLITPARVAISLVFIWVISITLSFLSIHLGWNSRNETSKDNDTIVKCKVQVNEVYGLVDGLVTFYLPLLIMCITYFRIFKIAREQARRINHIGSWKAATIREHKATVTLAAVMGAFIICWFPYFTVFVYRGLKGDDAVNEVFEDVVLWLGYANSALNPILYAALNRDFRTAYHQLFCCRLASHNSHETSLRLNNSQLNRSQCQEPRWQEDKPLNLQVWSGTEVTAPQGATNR
Procedure: The guinea pig heart atrium test is carried out as follows:
A guinea pig right atrium is suspended at 1 g. tension (isometric) in a thermostatically controlled (32° C.) tissue bath (10 ml) containing oxygenated (95% O2 ; 5% CO2) Krebs-Haenseleit buffer (pH 7.4). The tissue is allowed to stabilize over 1 hour. Individual contractions are recorded with a force-displacement transducer through a strain gauge coupler. A control dose-response curve to histamine in the above described tissue bath is obtained after which the tissue is washed 3 times and allowed to re-equilibrate to basal rate. The test compound is added to the tissue bath at the desired final concentration. Thirty minutes after addition of the compound, a fresh histamine dose response curve is again obtained. Then the response to histamine in the presence of antagonist is compared to the histamine control response. This procedure is repeated, using fresh tissues, for each concentration of antagonist tested. […] Cimetidine is used as the standard for this test.

gastric acid secretion [1] = experiment: gastric secretion in the rat, modified Shay procedure of pylorus ligation; assay type: in vivo; conditions: intraduodenal, 4 h, i.d., four hours after ligation, read-out: % Inhibition (of acid output)
Procedure: The procedure for testing gastric secretion in the rat, a modification of the procedure of Shay et al., Gastroenterology, 26, 906-13 (1954) is carried out as follows: Male Charles River rats weighing 200-300 grams are deprived of food but not water for 24 hours prior to use. Water is, however, withheld during the experiment. The rats are weighed, anesthetized, and the pylorus ligated according to the method of Shay et al. Treatment or vehicle control is then administered interduodenally (i.d.). Rats are housed 2/cage and sacrificed with CO2 four hours after ligation. The stomachs are removed, rinsed, and contents emptied into a graduated centrifuge tube. The tubes are centrifuged for 20 minutes at 2,000 RPM and the volume of gastric juice recorded. Any samples obviously contaminated by feces, food or hemolysis are eliminated. An aliquot of each is frozen for later analysis of Na^+, K^+ and Cl^- concentration. The pH is measured and 1 ml. of gastric juice is titrated with 0.1N NaOH to a pH of 7.0-7.4. Titratable acid output is calculated in microequivalents and the percent inhibition of acid output is calculated as follows: [formula]

gastric acid secretion [2] = experiment: inhibition of secretion of acidic gastric juice in dogs (Pavlov gastric pouch, fed); assay type: in vivo, dog (beagle); conditions: for ED50: Canis lupus familiaris, po, read-out: ID50 (dose at which there is obtained a 50% inhibition of the total gastric acid output)
Procedure: The procedure for testing the ability of the compounds of the invention to inhibit the secretion of acidic gastric juice in dogs is as follows: A female pure bred beagle (7-10 kg) having Pavlov gastric pouches is fasted overnight with water ad lib. The animal is orally dosed and thirty minutes later it is fed to induce gastric acid secretions. Gastric acid samples are then collected every 15 minutes. The volume of each sample is measured and aliquots are titrated to neutrality with 0.1N NaOH to determine acid concentration.

[3] = limitation noted in patients; cited from earlier work
[4] = 30 min after addition, results of three experiments, read-out: pA2 Value (apparent dissociation constant of the H2 antagonist) (converted)
[5] = orally dosed, fed thirty minutes later

SMILES	Kb (H2 histamine receptors; [4])	inhibition in vivo at 4 mg/kg (gastric acid secretion [1])	ED50 (gastric acid secretion [2]; [5])	inhibition in vivo at 8 mg/kg (gastric acid secretion [1])	further results
CN(C)Cc1ccc(CSCCNC2=NS(=O)(=O)c3ccccc32)o1 [Example 1, N-[2-[[[5-[(dimethylamino)methyl]2-furanyl]methyl]thio]ethyl]-1,2-benzisothiazol-3-amine 1,1-dioxide]	100 nM	79%	0.8 mg/kg		
Cl.O=S1(=O)N=C(NCCCOc2cccc(CN3CCCCCC3)c2)c2ccccc21 [Example 24, N-[3-[3-[(hexahydro-1H-azepin-1-yl)methyl]phenoxy]-propyl]-1,2-benzisothiazol-3-amine 1,1-dioxide, hydrochloride]	5.75 nM		1.2 mg/kg	50%	
Cl.O=S1(=O)N=C(NCCCOc2ccc(CN3CCCCC3)cc2)c2ccccc21 [Example 38, N-[3-[4-[(1-piperidinyl)methyl]phenoxy]propyl]-1,2-benzisothiazol-3-amine 1,1-dioxide, hydrochloride]	23.4 nM	52%	2 mg/kg		inhibition in vivo at 1 mg/kg (gastric acid secretion [1]): 34%; inhibition in vivo at 16 mg/kg (gastric acid secretion [1]): 93%
O=S1(=O)N=C(NCCCOc2cccc(CN3CCCCC3)c2)c2cscc21 [Example 41]		87%	0.25 mg/kg	91%	Kb (H2 histamine receptors; marked *, result of only one experiment, read-out: KB value): 5.94 nM; inhibition in vivo at 0.5 mg/kg (gastric acid secretion [1]; Dose 0.5 mg/kg): 37%; inhibition in vivo at 1 mg/kg (gastric acid secretion [1]): 84%; reduced gastric acid secretions (gastric acid secretion [2]; dose of 1 mg/kg, orally dosed): 82%
CNC(=C[N+](=O)[O-])NCCSCc1ccc(CN(C)C)o1 [ranitidine, reference compound]		43%	2.3 mg/kg		
O=S1(=O)N=C(NCCCOc2cccc(CN3CCCC3)c2)c2ccccc21 [Example 20, N-[3-[3-(1-pyrrolidinylmethyl)phenoxy]propyl]-1,2-benzisothiazol-3-amine 1 ,1-dioxide, hydrochloride, 1/3 hydrate]	25.1 nM		1.4 mg/kg		inhibition in vivo at 2 mg/kg (gastric acid secretion [1]; Dose 2 mg/kg): 50%
CCCN(CCC)Cc1cccc(OCCCNC2=NS(=O)(=O)c3ccccc32)c1.Cl [Example 18, N-[3-[3-[(dipropylamino)methyl]phenoxy]propyl]-1,2-benzisothiazol-3-amine 1,1-dioxide, hydrochloride]	15.8 nM		1.2 mg/kg	67%	inhibition in vivo at 16 mg/kg (gastric acid secretion [1]): 89%; inhibition in vivo at 32 mg/kg (gastric acid secretion [1]; Dose 32 mg/kg): 90%
CN/C(=N/CCSCc1nc[nH]c1C)NC#N [cimetidine]					ED50 (gastric acid secretion [2]): 6 mg/kg; duration of action [3]: short duration of action; side effects [3]: anti-androgenic activity; also recorded: tendency to cause confusional states in elderly patients
